# Laboratory results taken from patent US20250281451A1, “COMPOSITIONS AND METHODS FOR MODULATING SLEEP AND USES THEREOF” (Brightseed, Inc., priority 2022, published 2025).
# “Also recorded” adds a separate entry of the source.
# Tests used:
# Orx2 = molecular target: T1, Orx2 (Homo sapiens, UniProt O43614); experiment: Orx2 antagonist screening, chemiluminescent cell assay with Orexin B EC80; assay type: cell-based; conditions: for % Agonism Orx2 at Relative IC50: absolute percent agonism at the μM concentration of the relative OR2 IC50; for IC50: antagonist mode against Orexin B EC80, read-out: Relative IC50 of Orx2; for IC50 Dilution of Orx2 (fold dilution): concentration of the fraction of the plant source, in fold dilution, needed to achieve IC50 of OR2
# T1 construct: DiscoverX
# T1 sequence (O43614 1-444): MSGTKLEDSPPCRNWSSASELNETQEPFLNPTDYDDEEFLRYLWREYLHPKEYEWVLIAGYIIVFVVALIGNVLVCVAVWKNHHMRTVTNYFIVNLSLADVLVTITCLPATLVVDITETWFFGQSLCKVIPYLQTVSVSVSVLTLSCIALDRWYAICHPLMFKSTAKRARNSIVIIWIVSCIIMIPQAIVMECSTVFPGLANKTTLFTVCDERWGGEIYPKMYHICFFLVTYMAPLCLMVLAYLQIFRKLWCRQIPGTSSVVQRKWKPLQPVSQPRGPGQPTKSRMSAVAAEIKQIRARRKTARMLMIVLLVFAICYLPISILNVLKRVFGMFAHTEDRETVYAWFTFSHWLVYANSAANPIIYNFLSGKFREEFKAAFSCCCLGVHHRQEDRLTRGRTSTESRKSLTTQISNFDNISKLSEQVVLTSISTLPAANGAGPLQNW
# Protocol: For this example, the following protocol was used: 1.) seed cells in 20 μL Cell Plating Reagent; 2.) incubate cells overnight at 37° C. and 5% CO2; 3.) treat cells with 2.5 μL 10× antagonist prepared in Compound Dilution Buffer (For OR2 screening, 2.5 μL of 1:100 natural product sample in DiscoverX cell plating reagent. Control antagonist, Seltorexant, 10× stock was prepared at 1500 nM); 4.) incubate for 30 minutes at 37° C. and 5% CO2; 5.) treat cells with 2.5 μL 10× agonist prepared in Compound Dilution Buffer (For OR2 screening, 2.5 μL of 10× Orexin B EC80, 252.7 nM); 6.) incubate for 90 minutes at 37° C. and 5% CO2; 7.) add 12.5 μL Working Detection Solution; 8.) incubate for 1 hour at room temperature in the dark; and 9.) read chemiluminescent signal.
# (§1) The plants described herein were tested to determine the concentration, in μM, to achieve the relative IC50 of OR2 receptor, the absolute percent agonism achieved at the μM concentration of the relative OR2 IC50, the percentage receptor activity at the concentration, in μM, needed to achieve IC50 in OR2, the percentage cell viability, measured by XTT assay, at the IC50 μM concentration, the concentration of the fraction, in fold dilution, needed to achieve IC50 of OR2, and the percentage receptor activity at the concentration of the fraction, in fold dilution, needed to achieve IC50 of OR2.
# Orx1 = molecular target: T2, Orx1 (Homo sapiens, UniProt O43613); experiment: % agonism on Orx1 at the OR2 IC50 concentration; assay type: cell-based; conditions: at the μM concentration needed to achieve IC50 in OR2
# T2 sequence (O43613 1-425): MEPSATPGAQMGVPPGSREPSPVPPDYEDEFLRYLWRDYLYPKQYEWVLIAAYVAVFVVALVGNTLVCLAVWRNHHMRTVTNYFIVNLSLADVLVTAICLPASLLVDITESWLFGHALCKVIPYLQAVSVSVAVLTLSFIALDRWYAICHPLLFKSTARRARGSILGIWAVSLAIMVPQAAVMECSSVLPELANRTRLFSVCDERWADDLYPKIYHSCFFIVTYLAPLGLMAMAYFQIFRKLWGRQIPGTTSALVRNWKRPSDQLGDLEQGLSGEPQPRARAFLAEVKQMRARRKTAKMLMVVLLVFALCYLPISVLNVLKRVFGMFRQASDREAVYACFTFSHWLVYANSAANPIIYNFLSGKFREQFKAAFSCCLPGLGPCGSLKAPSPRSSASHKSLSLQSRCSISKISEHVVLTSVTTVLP
# Protocol: For this example, the following protocol was used: 1.) seed cells in 20 μL Cell Plating Reagent; 2.) incubate cells overnight at 37° C. and 5% CO2; 3.) treat cells with 2.5 μL 10× antagonist prepared in Compound Dilution Buffer (For OR2 screening, 2.5 μL of 1:100 natural product sample in DiscoverX cell plating reagent.
# as §1
# cells = experiment: cell viability, XTT assay; assay type: cell-based; conditions: at the IC50 μM concentration of the compound
# Protocol: as §1
# male Sprague-Dawley rat = experiment: in vivo tolerability, dose escalation, adverse effect observation; conditions: for 15 min effects (adverse effects) / 30 min effects (adverse effects) / 60 min effects (adverse effects): n=3 rats, (x/3) animals affected; for tolerability: all four doses (30, 100, 315 and 500 mg/kg) p.o., 60 min observation
# Protocol: In this example, the in vivo tolerability of Compounds 26, 21, 29, and 13 was assessed.
# Naïve rats (male Sprague-Dawley rat) were acclimatized to the procedure room in their home cages up to 7 days following arrival to the test facility, with food and water available ad libitum. On the day of experiment, animals were acclimatized to the experimental room for at least one hour prior to the beginning of any experiment. All animals were tail marked, weighed and randomly assigned to treatment groups. The animals (n=3 per dose) were treated with either Compounds 26, 21, 29, and 13 (10 mL/kg, p.o.). For each compound a maximum of 4 doses were tested using a dose escalation procedure starting from 30 mg/kg. If this initial dose is well-tolerated, the dosage is increased to 100 mg/kg. If the 30 mg/kg dose is not tolerated, the dose is reduced to 15 mg/kg. Following the dose escalation procedure, if the 100 mg/kg dose is well-tolerated, the dose is escalated to 315 mg/kg. If it is not tolerated, the dose is decreased to 60 mg/kg. The pattern continues with the next decision point: if 315 mg/kg is well-tolerated, the dose is increased to the maximum of 500 mg/kg. If 315 mg/kg is not tolerated, the dose is decreased to 200 mg/kg.
# The compounds would be considered not tolerated if three or more adverse effects (or any severe adverse effect) occurred at specific dose during the entire period of 60 mins. […] Mild—slight decrease in activity, responsive when provoked. Moderate—decrease in activity, less responsive when provoked.
IC50 Dilution of Orx2 (fold dilution) (Orx2),SMILES,% Agonism Orx2 at Relative IC50 (Orx2) [%],IC50 (Orx2) [µM],% Agonism on Orx1 at OR2 IC50 (Orx1) [%],% Cell viability at IC50 (cells) [%],15 min effects (adverse effects) (male Sprague-Dawley rat; 30 mg/kg p.o.),30 min effects (adverse effects) (male Sprague-Dawley rat; 30 mg/kg p.o.),60 min effects (adverse effects) (male Sprague-Dawley rat; 30 mg/kg p.o.),15 min effects (adverse effects) (male Sprague-Dawley rat; 100 mg/kg p.o.),30 min effects (adverse effects) (male Sprague-Dawley rat; 100 mg/kg p.o.),60 min effects (adverse effects) (male Sprague-Dawley rat; 100 mg/kg p.o.),15 min effects (adverse effects) (male Sprague-Dawley rat; 315 mg/kg p.o.),30 min effects (adverse effects) (male Sprague-Dawley rat; 315 mg/kg p.o.),60 min effects (adverse effects) (male Sprague-Dawley rat; 315 mg/kg p.o.),15 min effects (adverse effects) (male Sprague-Dawley rat; 500 mg/kg p.o.),30 min effects (adverse effects) (male Sprague-Dawley rat; 500 mg/kg p.o.),60 min effects (adverse effects) (male Sprague-Dawley rat; 500 mg/kg p.o.),tolerability (male Sprague-Dawley rat)
5786.9,"COc1ccc(C(=O)CCc2ccc(O)cc2)c(O)c1 [Compound 16, 1-(2-hydroxy-4-methoxyphenyl)-3-(4-hydroxyphenyl)propan-1-one]",75,381,77.95,85.11,,,,,,,,,,,,,
5786.9,"O=C(CCc1ccc(O)cc1)c1ccc(O)cc1OC1OC(CO)C(O)C(O)C1O (stereo not shown) [Compound 17, 3-(4-hydroxyphenyl)-1-[4-hydroxy-2-[3,4,5-trihydroxy-6-(hydroxymethyl)oxan-2-yl]oxyphenyl]propan-1-one]",80,188,100.52,89.87,,,,,,,,,,,,,
2283.9,"C[C@@H]1O[C@@H](OC[C@H]2O[C@@H](Oc3c(-c4ccc(O)c(O)c4)oc4cc(O)cc(O)c4c3=O)[C@H](O)[C@@H](O)[C@@H]2O)[C@H](O)[C@H](O)[C@H]1O [Compound 15, 2-(3,4-dihydroxyphenyl)-5,7-dihydroxy-3-[(2S,3R,4S,5S,6R)-3,4,5-trihydroxy-6-[[(2R,3R,4R,5R,6S)-3,4,5-trihydroxy-6-methyloxan-2-yl]oxymethyl]oxan-2-yl]oxychromen-4-one]",65,79.1,67.71,103.46,,,,,,,,,,,,,

# The remaining lines, values behind:
SMILES,IC50 Dilution of Orx2 (fold dilution) (Orx2),% Agonism Orx2 at Relative IC50 (Orx2) [%],IC50 (Orx2) [µM],% Agonism on Orx1 at OR2 IC50 (Orx1) [%],% Cell viability at IC50 (cells) [%],15 min effects (adverse effects) (male Sprague-Dawley rat; 30 mg/kg p.o.),30 min effects (adverse effects) (male Sprague-Dawley rat; 30 mg/kg p.o.),60 min effects (adverse effects) (male Sprague-Dawley rat; 30 mg/kg p.o.),15 min effects (adverse effects) (male Sprague-Dawley rat; 100 mg/kg p.o.),30 min effects (adverse effects) (male Sprague-Dawley rat; 100 mg/kg p.o.),60 min effects (adverse effects) (male Sprague-Dawley rat; 100 mg/kg p.o.),15 min effects (adverse effects) (male Sprague-Dawley rat; 315 mg/kg p.o.),30 min effects (adverse effects) (male Sprague-Dawley rat; 315 mg/kg p.o.),60 min effects (adverse effects) (male Sprague-Dawley rat; 315 mg/kg p.o.),15 min effects (adverse effects) (male Sprague-Dawley rat; 500 mg/kg p.o.),30 min effects (adverse effects) (male Sprague-Dawley rat; 500 mg/kg p.o.),60 min effects (adverse effects) (male Sprague-Dawley rat; 500 mg/kg p.o.),tolerability (male Sprague-Dawley rat)
"O=c1c(O[C@@H]2OC[C@H](O)[C@H](O)[C@H]2O)c(-c2ccc(O)cc2)oc2cc(O)cc(O)c12 [Compound 26, 5,7-dihydroxy-2-(4-hydroxyphenyl)-3-[(2S,3R,4S,5S)-3,4,5-trihydroxyoxan-2-yl]oxychromen-4-one]",,40,179,60.57,98.95,Reduced activity,No adverse effects,Reduced activity (3/3),Reduced activity,Reduced activity,Reduced activity (3/3),No adverse effects,No adverse effects,No adverse effects,No adverse effects,Reduced activity,No adverse effects,well-tolerated
"COc1c(O)cc2oc(-c3ccc(O)cc3)c(OC)c(=O)c2c1O [Compound 14, 5,7-dihydroxy-2-(4-hydroxyphenyl)-3,6-dimethoxychromen-4-one]",3466.5,50,89,62.98,94.58,,,,,,,,,,,,,
"O=c1cc(-c2ccc(O)c(O)c2)oc2cc(O)cc(O)c12 [Compound 13, 2-(3,4-dihydroxyphenyl)-5,7-dihydroxychromen-4-one]",2283.9,50,72.5,42.72,98.24,No adverse effects,No adverse effects,Reduced activity (3/3),No adverse effects,Reduced activity,No adverse effects,No adverse effects,No adverse effects,No adverse effects,Pica (2/3),Reduced activity; also recorded: Pica (2/3),Reduced activity (1/3),well-tolerated
